As a reminder, the Ki is a dissociation constant, usually derived from enzyme kinetics or from competition with a known ligand.

The target in this experiment is T1, trypanothione reductase (TR; LiTR) (Leishmania infantum, UniProt A4HSF7).
T1 construct: gene TRYR; Full-length LiTR with carboxy-terminal six-histidine tag (LiTR.6His), expressed in E. coli
As to the kind of experiment: DTNB-coupled trypanothione reductase assay with purified recombinant enzyme; Lineweaver-Burk and Dixon plot analysis (IC50 […] also reported). The experiment is classed as biochemical.

T1 sequence (A4HSF7 1-491): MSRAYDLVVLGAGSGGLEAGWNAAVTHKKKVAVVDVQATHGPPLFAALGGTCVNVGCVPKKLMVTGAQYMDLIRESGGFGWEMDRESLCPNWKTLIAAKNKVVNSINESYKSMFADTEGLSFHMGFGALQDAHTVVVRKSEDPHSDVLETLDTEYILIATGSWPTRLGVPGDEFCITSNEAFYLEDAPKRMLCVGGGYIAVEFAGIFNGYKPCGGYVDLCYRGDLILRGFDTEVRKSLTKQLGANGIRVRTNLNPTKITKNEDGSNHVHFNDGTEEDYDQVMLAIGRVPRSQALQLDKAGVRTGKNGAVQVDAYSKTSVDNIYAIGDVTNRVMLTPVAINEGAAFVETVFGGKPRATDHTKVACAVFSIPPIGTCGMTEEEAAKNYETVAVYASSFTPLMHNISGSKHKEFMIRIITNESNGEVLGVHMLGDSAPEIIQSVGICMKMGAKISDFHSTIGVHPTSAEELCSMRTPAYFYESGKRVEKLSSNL

On to `O=C(O[C@@H]1Cc2c(O)cc(O)cc2O[C@@H]1c1cc(O)c(O)c(O)c1)c1cc(O)c(O)c(O)c1` [(-)-Epigallocatechin 3-O-gallate], for which the Ki turned out to be 294 ± 66.3 µM.

For the origin of these results see PMC8027256, “Epigallocathechin-O-3-Gallate Inhibits Trypanothione Reductase of Leishmania infantum, Causing Alterations in Redox Balance and Leading to Parasite Death” (Frontiers in Cellular and Infection Microbiology, 2021).
